Results: the NIST ThermoML archive (doi:10.1016/j.jct.2012.02.006)
Numbers after ± are expanded uncertainties.

Experiment: molar heat capacity at constant pressure
Conditions: 298.15 K; 101.33 kPa; Liquid; Small sample (50 mg) DSC

molar heat capacity at constant pressure | Compound
626.77 ± 63 J/K/mol | CCCCCC[C@@H](O)C/C=C\CCCCCCCC(=O)O [[R]-12-hydroxy-cis-9-octadecenoic acid]
696.53 ± 70 J/K/mol | CCCCCC[C@@H](O)CC=CCCCCCCCC(=O)OC [[R]-methyl 12-hydroxy-9-octadecenoate]
